Data: ChEMBL document CHEMBL4346757, “Synthesis and biological evaluation of 7-methoxy-1-(3,4,5-trimethoxyphenyl)-4,5-dihydro-2H-benzo[e]indazoles as new colchicine site inhibitors” (Bioorg Med Chem Lett, 2019)

Tests used:
Type in all cases: functional
NCI-H522 = assay: Growth inhibition of human NCI-H522 cells assessed as cell growth at 0.01 uM after 48 hrs by SRB assay relative to control; conditions: NCI-H522, 48 h, read-out: Activity
HOP-62 = assay: Growth inhibition of human HOP62 cells assessed as cell growth at 100 uM after 48 hrs by SRB assay relative to control; conditions: HOP-62, 48 h, read-out: Activity
SNB-75 [1] = assay: Growth inhibition of human SNB75 cells assessed as cell growth at 10 uM after 48 hrs by SRB assay relative to control; conditions: SNB-75, 48 h, read-out: Activity
Hs-578T [2] = assay: Growth inhibition of human Hs 578T cells assessed as cell growth at 0.1 uM after 48 hrs by SRB assay relative to control; conditions: read-out: Activity
MDA-MB-231 = assay: Growth inhibition of human MDA-MB-231/ATCC cells assessed as cell growth at 0.01 uM after 48 hrs by SRB assay relative to control; conditions: MDA-MB-231, 48 h, read-out: Activity
SNB-75 [3] = assay: Growth inhibition of human SNB75 cells assessed as cell growth at 100 uM after 48 hrs by SRB assay relative to control; conditions: SNB-75, 48 h, read-out: Activity
SF-539 = assay: Cytotoxicity against human SF539 cells assessed as growth inhibition after 48 hrs by SRB assay; conditions: SF-539, 48 h
COLO 205 [4] = assay: Growth inhibition of human COLO205 cells assessed as cell growth at 0.01 uM after 48 hrs by SRB assay relative to control; conditions: COLO 205, 48 h, read-out: Activity
SF-295 [5] = assay: Growth inhibition of human SF295 cells assessed as cell growth at 100 uM after 48 hrs by SRB assay relative to control; conditions: SF-295, 48 h, read-out: Activity
RPMI-8226 = assay: Cytotoxicity against human RPMI8226 cells assessed as growth inhibition after 48 hrs by SRB assay; conditions: RPMI-8226, 48 h
IGROV-1 = assay: Growth inhibition of human IGROV1 cells assessed as cell growth at 1 uM after 48 hrs by SRB assay relative to control; conditions: IGROV-1, 48 h, read-out: Activity
MDA-MB-468 = assay: Growth inhibition of human MDA-MB-468 cells assessed as cell growth at 0.1 uM after 48 hrs by SRB assay relative to control; conditions: MDA-MB-468, 48 h, read-out: Activity
NCI-H23 = assay: Growth inhibition of human NCI-H23 cells assessed as cell growth at 10 uM after 48 hrs by SRB assay relative to control; conditions: NCI-H23, 48 h, read-out: Activity
UO-31 [6] = assay: Cytotoxicity against human UO31 cells assessed as growth inhibition after 48 hrs by SRB assay; conditions: UO-31, 48 h
Hs-578T [7] = assay: Cytotoxicity against human Hs 578T cells assessed as growth inhibition after 48 hrs by SRB assay
ACHN = assay: Growth inhibition of human ACHN cells assessed as cell growth at 1 uM after 48 hrs by SRB assay relative to control; conditions: read-out: Activity
A549 = assay: Growth inhibition of human A549/ATCC cells assessed as cell growth at 1 uM after 48 hrs by SRB assay relative to control; conditions: A549, 48 h, read-out: Activity
NCI-H460 = assay: Growth inhibition of human NCI-H460 cells assessed as cell growth at 0.01 uM after 48 hrs by SRB assay relative to control; conditions: NCI-H460, 48 h, read-out: Activity
HCT-15 = assay: Growth inhibition of human HCT15 cells assessed as cell growth at 0.01 uM after 48 hrs by SRB assay relative to control; conditions: HCT-15, 48 h, read-out: Activity
COLO 205 [8] = assay: Growth inhibition of human COLO205 cells assessed as cell growth at 10 uM after 48 hrs by SRB assay relative to control; conditions: COLO 205, 48 h, read-out: Activity
UO-31 [9] = assay: Growth inhibition of human UO31 cells assessed as cell growth at 0.1 uM after 48 hrs by SRB assay relative to control; conditions: UO-31, 48 h, read-out: Activity
SF-295 [10] = assay: Growth inhibition of human SF295 cells assessed as cell growth at 0.01 uM after 48 hrs by SRB assay relative to control; conditions: SF-295, 48 h, read-out: Activity
K562 = assay: Cytotoxicity against human K562 cells assessed as growth inhibition after 48 hrs by SRB assay; conditions: K562, 48 h
SR = assay: Growth inhibition of human SR cells assessed as cell growth at 100 uM after 48 hrs by SRB assay relative to control; conditions: read-out: Activity
HT-29 = assay: Growth inhibition of human HT-29 cells assessed as cell growth at 100 uM after 48 hrs by SRB assay relative to control; conditions: HT-29, 48 h, read-out: Activity
RXF 393 = assay: Growth inhibition of human RXF393 cells assessed as cell growth at 100 uM after 48 hrs by SRB assay relative to control; conditions: RXF 393, 48 h, read-out: Activity
SNB-75 [11] = assay: Growth inhibition of human SNB75 cells assessed as cell growth at 0.01 uM after 48 hrs by SRB assay relative to control; conditions: SNB-75, 48 h, read-out: Activity
BT-549 = assay: Growth inhibition of human BT549 cells assessed as cell growth at 100 uM after 48 hrs by SRB assay relative to control; conditions: BT-549, 48 h, read-out: Activity
HCC 2998 = assay: Growth inhibition of human HCC2998 cells assessed as cell growth at 1 uM after 48 hrs by SRB assay relative to control; conditions: HCC 2998, 48 h, read-out: Activity
Malme-3M = assay: Growth inhibition of human MALME-3M cells assessed as cell growth at 100 uM after 48 hrs by SRB assay relative to control; conditions: read-out: Activity
MCF7 = assay: Cytotoxicity against human MCF7 cells assessed as growth inhibition after 48 hrs by SRB assay; conditions: MCF7, 48 h
[12] = read-out: LC50 (the source's name)
[13] = read-out: pLC50 (the source's name) (converted)

## COc1ccc2c(c1)CCc1n[nH]c(-c3cc(OC)c(OC)c(OC)c3)c1-2
NCI-H522
  growth at 0.01 µM: -16%
HOP-62
  growth at 100 µM: -76%
SNB-75 [1]
  growth at 10 µM: 22%
Hs-578T [2]
  growth at 0.1 µM: 17%
MDA-MB-231
  growth at 0.01 µM: 34%
SNB-75 [3]
  growth at 100 µM: -30%
SF-539; read-out: GI50
  GI50: < 0.01 µM
SF-539; [12]
  CC50: 29.9 µM
SF-539; read-out: TGI
  TGI: < 0.01 µM
SF-539; read-out: pGI50 (converted)
  GI50: < 0.01 µM
SF-539; [13]
  CC50: 30.2 µM
SF-539; read-out: pTGI
  TGI: < 0.01 µM
COLO 205 [4]
  growth at 0.01 µM: -23%
SF-295 [5]
  growth at 100 µM: -61%
RPMI-8226; [12]
  CC50: > 100 µM
RPMI-8226; read-out: TGI
  TGI: > 100 µM
RPMI-8226; [13]
  CC50: > 100 µM
RPMI-8226; read-out: pTGI
  TGI: > 100 µM
IGROV-1
  growth at 1 µM: 26%
MDA-MB-468
  growth at 0.1 µM: -2%
NCI-H23
  growth at 10 µM: -6%
UO-31 [6]; read-out: GI50
  GI50: < 0.01 µM
UO-31 [6]; [12]
  CC50: > 100 µM
UO-31 [6]; read-out: TGI
  TGI: 17.3 µM
UO-31 [6]; read-out: pGI50 (converted)
  GI50: < 0.01 µM
UO-31 [6]; [13]
  CC50: > 100 µM
UO-31 [6]; read-out: pTGI (converted)
  TGI: 17.4 µM
Hs-578T [7]; read-out: GI50
  GI50: < 0.01 µM
Hs-578T [7]; read-out: LC50
  LC50: > 100 µM
Hs-578T [7]; read-out: TGI
  TGI: 22.3 µM
Hs-578T [7]; read-out: pGI50 (converted)
  GI50: < 0.01 µM
Hs-578T [7]; read-out: pLC50 (converted)
  LC50: > 100 µM
Hs-578T [7]; read-out: pTGI (converted)
  TGI: 22.4 µM
ACHN
  growth at 1 µM: 25%
A549
  growth at 1 µM: 11%
NCI-H460
  growth at 0.01 µM: 3%
HCT-15
  growth at 0.01 µM: 6%
COLO 205 [8]
  growth at 10 µM: -61%
UO-31 [9]
  growth at 0.1 µM: 30%
SF-295 [10]
  growth at 0.01 µM: 3%
K562; read-out: GI50
  GI50: < 0.01 µM
K562; [12]
  CC50: > 100 µM
K562; read-out: TGI
  TGI: > 100 µM
K562; read-out: pGI50 (converted)
  GI50: < 0.01 µM
K562; [13]
  CC50: > 100 µM
K562; read-out: pTGI
  TGI: > 100 µM
SR
  growth at 100 µM: -15%
HT-29
  growth at 100 µM: -72%
RXF 393
  growth at 100 µM: -68%
SNB-75 [11]
  growth at 0.01 µM: 12%
BT-549
  growth at 100 µM: -36%
HCC 2998
  growth at 1 µM: 14%
Malme-3M
  growth at 100 µM: -36%
MCF7; read-out: GI50
  GI50: < 0.01 µM
MCF7; read-out: LC50
  LC50: > 100 µM
MCF7; read-out: TGI
  TGI: 12.9 µM
MCF7; read-out: pGI50 (converted)
  GI50: < 0.01 µM
MCF7; read-out: pLC50 (converted)
  LC50: > 100 µM
MCF7; read-out: pTGI (converted)
  TGI: 12.9 µM
